# Molecular target: T1, MD-2 (Homo sapiens, UniProt Q9Y6Y9)
# T1 sequence (Q9Y6Y9 19-160): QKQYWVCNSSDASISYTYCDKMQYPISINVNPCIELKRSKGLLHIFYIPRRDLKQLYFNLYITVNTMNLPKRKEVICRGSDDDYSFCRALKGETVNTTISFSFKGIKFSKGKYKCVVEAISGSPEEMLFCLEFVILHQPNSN
# Experiment: quenching of MD-2 intrinsic Tyr/Trp fluorescence
# Type: binding
compound,measurement,value
"CN1CC[C@]23c4c5ccc(O[C@@H]6O[C@H](C(=O)O)[C@@H](O)[C@H](O)[C@H]6O)c4O[C@H]2[C@@H](O)C=C[C@H]3[C@H]1C5 [M3G, morphine-3-glucuronide]",Kd,1500 ± 300 nM
